Source: patent US11878970B2, “Allosteric chromenone inhibitors of phosphoinositide 3-kinase (PI3K) for the treatment of disease” (Petra Pharma Corporation, priority 2021, dated 2024)

Legend:
[1] = molecular target: PI3K-α (PIK3CA) in MDA-MB-453 cells (Homo sapiens, UniProt P42336); test: PI3K-alpha kinase (PIK3CA) in vitro cell based assay, MDA-MB-453 cells, SureFire Ultra AlphaLisa; conditions: read-out: PI3K-α (PIK3CA) in vitro cell based assay IC50
Outline: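 Cells treated 3 h in serum-free MEM with 1 μg/mL insulin, 10-point 1:3 series in 0.3% DMSO, then lysed for SureFire Ultra AlphaLisa read-out. Inhibition normalized to DMSO (max) and 1 μM GDC-0032 (min); duplicate averages fitted by 4-parameter logistic for relative IC50.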

[2] = molecular target: T1, PI3K-α (PIK3CA) wild-type (WT), p110α/p85α complex (Homo sapiens, UniProt P42336); test: PI3K-alpha kinase (PIK3CA) biochemical activity, ADP-Glo, wild-type; conditions: Soy PI lipid substrate
T1 construct: Recombinant, catalytically active human full length PIK3KA Wild-type and H1047R mutant; 6×His (N); purchased EMD Millipore Sigma 14-602M
Outline: (§1)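 ADP formation measured by ADP-Glo luminescence after reaction at 27 °C to about 10% ATP turnover, using 20 uM ATP, 50 uM PIP2diC8 or soy PI lipid, HEPES pH 7.4 with MgCl2. Enzyme (1-5 nM WT or H1047R p110α/p85α) and compound preincubated 1 h first; 10-point 1:3 curves fitted four-parameter for IC50.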

[3] = molecular target: T2, PI3K-α (PIK3CA) H1047R mutant, p110α/p85α complex (Homo sapiens, UniProt P42336, H1047R); test: PI3K-alpha kinase (PIK3CA) biochemical activity, ADP-Glo, H1047R mutant; conditions: Soy PI lipid substrate
T2 construct: Recombinant, catalytically active human full length PIK3KA Wild-type and H1047R mutant; 6×His (N); purchased EMD Millipore Sigma 14-792M
T2 sequence (P42336 whole entry H1047R): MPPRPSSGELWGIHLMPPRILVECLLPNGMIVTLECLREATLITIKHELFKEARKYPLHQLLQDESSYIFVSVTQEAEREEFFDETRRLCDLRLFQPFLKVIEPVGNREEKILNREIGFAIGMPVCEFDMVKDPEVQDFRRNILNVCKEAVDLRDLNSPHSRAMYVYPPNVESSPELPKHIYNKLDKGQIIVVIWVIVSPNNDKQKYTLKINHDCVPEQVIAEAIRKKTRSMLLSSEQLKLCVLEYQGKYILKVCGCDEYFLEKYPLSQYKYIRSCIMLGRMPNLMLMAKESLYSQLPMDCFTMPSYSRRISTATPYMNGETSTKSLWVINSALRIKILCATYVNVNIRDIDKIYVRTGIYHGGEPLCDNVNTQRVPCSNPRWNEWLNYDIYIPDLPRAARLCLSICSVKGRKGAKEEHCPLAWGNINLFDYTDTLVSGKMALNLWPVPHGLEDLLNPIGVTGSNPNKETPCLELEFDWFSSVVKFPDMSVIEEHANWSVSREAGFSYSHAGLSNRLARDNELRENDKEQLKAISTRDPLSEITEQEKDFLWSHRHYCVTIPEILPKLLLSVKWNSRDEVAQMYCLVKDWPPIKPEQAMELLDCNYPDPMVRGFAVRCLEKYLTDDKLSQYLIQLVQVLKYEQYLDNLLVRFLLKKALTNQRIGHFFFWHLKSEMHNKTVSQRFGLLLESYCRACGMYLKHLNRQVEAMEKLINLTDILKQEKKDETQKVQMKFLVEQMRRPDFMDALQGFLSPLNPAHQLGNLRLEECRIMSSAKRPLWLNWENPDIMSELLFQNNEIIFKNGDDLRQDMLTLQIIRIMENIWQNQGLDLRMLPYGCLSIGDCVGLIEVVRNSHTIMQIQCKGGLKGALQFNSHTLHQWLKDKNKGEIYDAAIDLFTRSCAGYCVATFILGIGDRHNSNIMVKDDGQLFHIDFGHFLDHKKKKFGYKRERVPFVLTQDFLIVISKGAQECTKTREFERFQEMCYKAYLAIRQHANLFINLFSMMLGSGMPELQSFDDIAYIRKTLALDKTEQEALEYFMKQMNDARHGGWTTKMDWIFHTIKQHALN
T2 sequence (P27986 whole entry partner): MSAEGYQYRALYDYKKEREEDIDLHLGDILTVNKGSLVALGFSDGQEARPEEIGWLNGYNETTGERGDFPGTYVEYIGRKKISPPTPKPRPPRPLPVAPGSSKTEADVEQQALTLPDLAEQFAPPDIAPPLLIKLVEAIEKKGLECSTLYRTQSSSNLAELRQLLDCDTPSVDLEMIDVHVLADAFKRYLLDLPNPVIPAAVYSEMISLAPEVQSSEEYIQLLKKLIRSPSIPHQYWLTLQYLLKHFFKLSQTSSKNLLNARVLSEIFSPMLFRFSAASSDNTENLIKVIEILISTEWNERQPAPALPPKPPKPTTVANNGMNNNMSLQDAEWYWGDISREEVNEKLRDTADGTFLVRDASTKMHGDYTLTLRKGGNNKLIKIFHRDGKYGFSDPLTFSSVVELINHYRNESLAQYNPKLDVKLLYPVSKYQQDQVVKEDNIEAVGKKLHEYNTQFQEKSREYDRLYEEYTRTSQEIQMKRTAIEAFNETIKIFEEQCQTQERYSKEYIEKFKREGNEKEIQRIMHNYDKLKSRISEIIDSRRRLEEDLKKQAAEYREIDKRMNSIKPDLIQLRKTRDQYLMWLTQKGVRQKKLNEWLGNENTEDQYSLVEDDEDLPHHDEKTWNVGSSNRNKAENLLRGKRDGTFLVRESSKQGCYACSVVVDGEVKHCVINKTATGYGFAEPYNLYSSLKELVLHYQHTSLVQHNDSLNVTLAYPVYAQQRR
Outline: as §1

PI3K-α (PIK3CA) in MDA-MB-453 cells, sequence (P27986 2-724): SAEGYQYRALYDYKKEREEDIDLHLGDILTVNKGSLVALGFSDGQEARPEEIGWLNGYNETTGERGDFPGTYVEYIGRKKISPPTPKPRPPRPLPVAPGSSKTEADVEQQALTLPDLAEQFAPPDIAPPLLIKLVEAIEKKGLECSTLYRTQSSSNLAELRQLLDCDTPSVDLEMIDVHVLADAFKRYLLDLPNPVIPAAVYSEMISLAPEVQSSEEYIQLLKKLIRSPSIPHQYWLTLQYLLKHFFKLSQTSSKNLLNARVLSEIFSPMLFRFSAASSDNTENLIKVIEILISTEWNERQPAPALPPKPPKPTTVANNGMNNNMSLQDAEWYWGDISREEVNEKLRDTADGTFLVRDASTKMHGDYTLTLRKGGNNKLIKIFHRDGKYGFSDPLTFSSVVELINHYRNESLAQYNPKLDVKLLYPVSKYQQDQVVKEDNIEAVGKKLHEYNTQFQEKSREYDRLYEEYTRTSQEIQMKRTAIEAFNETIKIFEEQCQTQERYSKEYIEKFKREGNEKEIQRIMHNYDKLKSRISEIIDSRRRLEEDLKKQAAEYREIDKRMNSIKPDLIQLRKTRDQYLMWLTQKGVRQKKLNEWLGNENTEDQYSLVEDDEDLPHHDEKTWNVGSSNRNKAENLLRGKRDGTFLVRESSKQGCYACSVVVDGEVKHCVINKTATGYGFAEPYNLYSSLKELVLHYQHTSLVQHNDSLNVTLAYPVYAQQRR
PI3K-α (PIK3CA) in MDA-MB-453 cells, sequence (P42336 whole entry): as the sequence (P42336 whole entry H1047R) above, with R1047H counted along it

Structure (SMILES) | IC50 [1] | IC50 [2] | IC50 [3]
COc1ccc2nc(-c3cc(=O)c4cc(C)cc([C@@H](C)Nc5ccccc5C(=O)O)c4o3)ccc2n1 [Example 255, 2-[[(1R)-1-[2-(6-Methoxy-1,5-naphthyridin-2-yl)-6-methyl-4-oxo-chromen-8-yl]ethyl]amino]benzoic acid] | 50 to 100 nM | 1000 to 5000 nM | 500 to 1000 nM
Cc1cc([C@@H](C)Nc2ccccc2C(=O)O)c2oc(-c3ccc4nc(C)oc4n3)c(C)c(=O)c2c1 [Example 256, 2-[[(1R)-1-[3,6-Dimethyl-2-(2-methyloxazolo[5,4-b]pyridin-5-yl)-4-oxo-chromen-8-yl]ethyl]amino]benzoic acid] | < 50 nM | 500 to 1000 nM | < 500 nM
Cc1cc([C@@H](C)Nc2cccc(F)c2C(=O)O)c2oc(-c3ccc4nc(C)sc4n3)cc(=O)c2c1 [Example 257, 2-Fluoro-6-[[(1R)-1-[6-methyl-2-(2-methylthiazolo[5,4-b]pyridin-5-yl)-4-oxo-chromen-8-yl]ethyl]amino]benzoic acid] | < 50 nM | 1000 to 5000 nM | < 500 nM
Cc1cc([C@@H](C)Nc2ccc(Cl)cc2C(=O)O)c2oc(-c3ccc4nn(C)cc4c3)c(C)c(=O)c2c1 [Example 258, 5-Chloro-2-[[(1R)-1-[3,6-dimethyl-2-(2-methylindazol-5-yl)-4-oxo-chromen-8-yl]ethyl]amino]benzoic acid] | < 50 nM | 500 to 1000 nM | < 500 nM
Cc1cc([C@@H](C)Nc2ccc(Cl)cc2C(=O)O)c2oc(-c3ccc4c(cnn4C)c3)c(C)c(=O)c2c1 [Example 259, 5-Chloro-2-[[(1R)-1-[3,6-dimethyl-2-(1-methylindazol-5-yl)-4-oxo-chromen-8-yl]ethyl]amino]benzoic acid] | 50 to 100 nM | < 500 nM | < 500 nM
Cc1cc([C@@H](C)Nc2ccc(F)cc2C(=O)O)c2oc(-c3ccc4c(cnn4C)c3)c(C)c(=O)c2c1 [Example 260, 2-[[(1R)-1-[3,6-Dimethyl-2-(1-methylindazol-5-yl)-4-oxo-chromen-8-yl]ethyl]amino]-5-fluoro-benzoic acid] | < 50 nM | < 500 nM | < 500 nM
Cc1cc([C@@H](C)Nc2ccccc2C(=O)O)c2oc(-c3ccc4nc(C)oc4c3)c(C)c(=O)c2c1 [Example 261, 2-[[(1R)-1-[3,6-Dimethyl-2-(2-methyl-1,3-benzoxazol-6-yl)-4-oxo-chromen-8-yl]ethyl]amino]benzoic acid] | < 50 nM | 500 to 1000 nM | < 500 nM
Cc1cc([C@@H](C)Nc2ccccc2C(=O)O)c2oc(-c3ccc4nc(C)sc4c3)c(C)c(=O)c2c1 [Example 262, 2-[[(1R)-1-[3,6-Dimethyl-2-(2-methyl-1,3-benzothiazol-6-yl)-4-oxo-chromen-8-yl]ethyl]amino]benzoic acid] | < 50 nM | 500 to 1000 nM | < 500 nM
Cc1cc([C@@H](C)Nc2ccc(Cl)nc2C(=O)O)c2oc(-c3nc4ccccc4o3)c(C)c(=O)c2c1 [Example 263, 3-[[(1R)-1-[2-(1,3-benzoxazol-2-yl)-3,6-dimethyl-4-oxo-chromen-8-yl]ethyl]amino]-6-chloro-pyridine-2-carboxylic acid; 2,2,2-trifluoroacetic acid] | < 50 nM | 1000 to 5000 nM | < 500 nM
Cc1cc([C@@H](C)Nc2cccc(F)c2C(=O)O)c2oc(-c3cc4cnccc4o3)c(C)c(=O)c2c1 [Example 264, 2-Fluoro-6-[[(1R)-1-(2-furo[3,2-c]pyridin-2-yl-3,6-dimethyl-4-oxo-chromen-8-yl)ethyl]amino]benzoic acid; 2,2,2-trifluoroacetic acid] | < 50 nM | < 500 nM | < 500 nM
Cc1cc([C@@H](C)Nc2ccc(C)nc2C(=O)O)c2oc(-c3ccc4nc(C)sc4n3)c(C)c(=O)c2c1 [Example 265, 3-[[(1R)-1-[3,6-Dimethyl-2-(2-methylthiazolo[5,4-b]pyridin-5-yl)-4-oxo-chromen-8-yl]ethyl]amino]-6-methyl-pyridine-2-carboxylic acid] | 50 to 100 nM | 1000 to 5000 nM | < 500 nM
